We go through one substance from US20140328933A1, “NOVEL FORMULATIONS AND METHODS” (priority 2010, published 2014).

Where no end group is shown, it is not given here.

The test system of this test is Angiogenesis in the CAM Model. Put plainly: Chorioallantoic Membrane Angiogenesis (CAM) Model, branch points formation. The format is in vivo. The text has this:
VIP in Chorioallantoic Membrane Angiogenesis (CAM) Model
FIG. 15 depicts the results of testing regarding Nanoparticle encapsulates.

For “Vasoactive intestinal peptide (HSDAVFTDNYTRLRKQMAVKKYLNSILN-NH2) [VIP, peptide hormone containing 28 amino acid residues]”, for the setting “VIP 1 ng/CAM, PBS average subtracted”, the “Total # of branches [VIP (1 ng/CAM) - PBS(average)], Mean” value turned out to be 34.8. For the same substance, the “Total # of branches [VIP (10 ng/CAM) - PBS(average)], Mean” value (VIP 10 ng/CAM, PBS average subtracted) worked out at 53.6. Further, the “number of branches, Mean” value by setting is: (VIP 0.1 ug/ml, 1 ng/CAM) 84.8; (VIP 1 ug/ml, 10 ng/CAM) 103.6; (VIP 10 ug/ml, 100 ng/CAM) 121.7. Further, for the setting “VIP 100 ng/CAM, PBS average subtracted”, the “Total # of branches [VIP (100 ng/CAM) - PBS(average)], Mean” value amounted to 71.7.
